# Values quoted from earlier work as cited in US20080253985A1, “Compositions for Lowering Serum Cholesterol and/or Triglycerides” (priority 2005, published 2008).
# Read-outs that look alike come from different tables or passages of the source.
# How the values were obtained:
# [1] = dose of 40 mg
# [2] = hoFH patients; ezetimibe 10 mg/day added to atorvastatin or simvastatin 80 mg/day
# [3] = clinical studies, dosages of 80 mg/day or greater
structure (smiles),measurement,setting,value
"O=C(NC1CCN(CCCCC2(C(=O)NCC(F)(F)F)c3ccccc3-c3ccccc32)CC1)c1ccccc1-c1ccc(C(F)(F)F)cc1 [BMS-201038, N-(2,2,2-Trifluorethyl)-9-[4-[4-[[[4′-(trifluoromethyl)[1,1′biphenyl]-2-Yl]carbonyl]amino]-1-piperidinyl]butyl]9H-fluorene-9-carboxamide]",adverse events,patients treated with 25 mg/day,"gastrointestinal disturbances, abnormalities in liver function, and hepatic steatosis"
"CC(C)c1c(C(=O)Nc2ccccc2)c(-c2ccccc2)c(-c2ccc(F)cc2)n1CCC(O)CC(O)CC(=O)O (centres unmarked) [atorvastatin, 7-[2-(4-fluorophenyl)-5-(1-methylethyl)-3-phenyl-4-(phenylcarbamoyl)-1H-pyrrol-1-yl]-3,5-dihydroxy-heptanoic acid]","patients achieving goal attainment, LDL <70 mg/dL",[1],23%
O=C1[C@H](CC[C@H](O)c2ccc(F)cc2)[C@@H](c2ccc(O)cc2)N1c1ccc(F)cc1 [ezetimibe],total reduction of LDL-C levels,[2],27%
"Cc1cc(C)c2c3ccccc3n(Cc3ccc([C@@H](C(=O)N[C@H](CO)c4ccccc4)C4CCCC4)cc3)c2n1 [implitapide, (2S)-2-cyclopentyl-2-[4-[(2,4-dimethyl-9H-pyrido[2,3-b]indol-9-yl)methyl]phenyl]-N-[(1S)-2-hydroxy-1-phenylethyl]ethanamide]",adverse events,[3],"gastrointestinal disturbances, abnormalities in liver function, and hepatic steatosis"
same,therapeutic efficacy,[3],therapeutically effective
